We go through 1 compound from PMC6718988, “Bioactivity and Bactericidal Mechanism of Histidine-Rich β-Hairpin Peptide Against Gram-Negative Bacteria” (International Journal of Molecular Sciences, 2019).

Experiment [1] relates to E. coli ATCC25922. Nature of the experiment: SEM characterization of cell morphology. Type of experiment: cell-based. The settings on record: E. coli ATCC25922, 1 × MIC (HV2 8 μM, PG-1 4 μM), 1 h. The method, then: For the SEM sample preparation, E. coli ATCC25922 cells were cultured at 37 °C to mid-log phase in MH broth with constant shaking at 220 rpm, centrifuged at 1000 g and then adjusted to an OD600 of 0.1–0.2 in PBS. […] Bacteria incubated with PBS served as controls. After the incubation, the mixture was centrifuged at 5000 g for 5 min, and the collected bacteria were washed three times with PBS. Approximately 2.5% (w/v) glutaraldehyde was added for fixation at 4 °C overnight, followed by washing three times with PBS. The samples were dehydrated with 50%, 70%, 90%, 100% ethanol for 10 min. A mixture of ethanol and tert-butanol was added to the dried bacterial cells for 30 min, and then t-butanol was added for 1 h. Finally, the samples were dehydrated and coated with liquid CO2 in a critical point dryer and then observed using a Hitachi S-4800 SEM (Hitachi, Tokyo, Japan).

Experiment [2] concerns E. coli ATCC25922. Description: Swimming motility assay. Type of experiment: cell-based. The settings on record: E. coli ATCC25922, 0.3% agar, 1–8 μM peptide, 37 °C, 20 h; versus untreated control. The method, then: The cell motility assay was performed on LB medium containing 0.3% agar. The peptides were added to 10 mL of medium at final concentrations of 1–8 μM. After mixing well, the mixtures were poured into 6-well plates and dried for 2 h. Subsequently, an overnight culture of E. coli ATCC 25922 was inoculated in the center of the movement plate. After incubation at 37 °C for 20 h, images were taken using a FluoroChemQ system (Cell biosciences, San Jose, CA, USA). The experiment was independently repeated three times.

Another experiment has as its system S. pullorum C7913. Description: microbe, parasite or virus in culture. The settings on record: C7913, 24 h. In a few lines:
(§1)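 In this assay, log-phase bacteria (~1 × 10^5 CFU/mL, MHB) met serially diluted peptides, 0.25–128 μM final, with acetic acid 0.01% and BSA 0.2% present. Plates stood 24 h at 37 °C before 492 nm reading; the inhibitory endpoint was no absorbance gain versus microbe-free wells, repeated in three independent experiments.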

The subject of another experiment is E. coli UB1005. Nature of the experiment: microbe, parasite or virus in culture. The settings on record: UB1005, 24 h. In a few lines: as §1
The subject of experiment [3] is methicillin-resistant S. aureus ATCC43300. Description: microbe, parasite or virus in culture. The settings on record: ATCC43300, 24 h. In a few lines:
as §1

The next experiment has as its system S. aureus ATCC29213. Nature of the experiment: microbe, parasite or virus in culture. The settings on record: ATCC29213, 24 h. In a few lines:
as §1

For a further experiment, the system named is P. aeruginosa ATCC27853. Nature of the experiment: microbe, parasite or virus in culture. The settings on record: ATCC27853, 24 h. In a few lines: as §1
In another experiment the test system is E. coli K88. Nature of the experiment: microbe, parasite or virus in culture. The settings on record: E. coli K88; MHB, about 1 × 10^5 CFU/mL, 37 °C, 24 h; three independent experiments. In a few lines:
as §1

A further experiment has as its system S. epidermidis ATCC12228. Description: microbe, parasite or virus in culture. The following applies: ATCC12228, 24 h. In a few lines: as §1
For experiment [4], the system named is E. coli ATCC25922. Nature of the experiment: microbe, parasite or virus in culture. The settings on record: ATCC25922, 24 h. In a few lines: as §1

Converted amounts (≈) assume the structure as drawn. Where a SMILES comes first, the peptide text is derived from it. [ ]: non-standard residue; d: D form.

Take `CC(C)[C@H](NC(=O)CNC(=O)[C@H]1CCCN1C(=O)[C@@H](NC(=O)[C@H](Cc1c[nH]cn1)NC(=O)[C@@H](NC(=O)[C@H](Cc1c[nH]cn1)NC(=O)[C@@H](NC(=O)[C@H](CCCNC(=N)N)NC(=O)[C@@H](N)CCCNC(=N)N)C(C)C)C(C)C)C(C)C)C(=O)N[C@@H](Cc1c[nH]cn1)C(=O)N[C@H](C(=O)N[C@@H](Cc1c[nH]cn1)C(=O)N[C@H](C(=O)N[C@@H](CCCNC(=N)N)C(=O)N[C@@H](CCCNC(=N)N)C(N)=O)C(C)C)C(C)C` [HV2] (H-RRVHVHV[dP]GVHVHVRR-NH2; N-terminus assumed): in the experiment on E. coli ATCC25922 [1], the “cell morphology by SEM” value is “rough and wrinkled”. For the same compound, the “swimming motility (diameter of swimming bacteria)” value with E. coli ATCC25922 [2] is recorded as “significantly reduced the diameter of the swimming bacteria”. The MIC was 8 µM (≈ 15.5 µg/mL) in the experiment on S. pullorum C7913; 8 µM (≈ 15.5 µg/mL) against E. coli UB1005; more than 128 µM in experiment [3]; more than 128 µM against S. aureus ATCC29213; 8 µM (≈ 15.5 µg/mL) against P. aeruginosa ATCC27853; 4 µM (≈ 7.76 µg/mL) in the experiment on E. coli K88. The MIC was more than 128 µM with S. epidermidis ATCC12228 and 8 µM (≈ 15.5 µg/mL) with E. coli ATCC25922 [4].
